US10669242B2 (priority 2016, dated 2020)

Legend:
[1] = test system: C. difficile toxin (TcdA and TcdB, ~1:1); assay: Murine C. difficile toxin model (intrarectal toxin); format: in vivo, C57BL/6 mice; conditions: for IL-1β (% Inhibition) / MPO (% Inhibition): murine C. difficile toxin model, PO, 50 mg/kg body weight; for IL-1β in colon tissue / MPO in colon tissue / toxin effect on colon length: oral (PO), 50 mg/kg, intrarectal toxin 12.5 μg
[2] = test system: C. difficile strain VPI 10463; assay: Acute murine C. difficile infection model; format: in vivo, C57BL/6 mice; conditions: PO; 52 hours after infection
Text: In a hospital environment, C. difficile infection occurs when the patient receives an antibiotic treatment that disrupts the normal gut microflora and is exposed to C. difficile spores. The patient often fails to mount a protective immune response against the acute C. difficile infection. (Rupnik, Wilcox et al. 2009). To study the acute C. difficile infection, we established a murine C. difficile infection model. Details of the infection model are provided in the “Experimental Protocol” (below).
In brief, female C57BL/6 mice were administered the following antibiotics: colistin (0.042 units/mL), gentamicin (0.035 mg/mL), kanamycin (0.4 mg/mL), metronidazole (0.215 mg/mL) and vancomycin (0.045 mg/mL) in drinking water for 3 days. The administered antibiotics disrupted the normal gut microflora in mice. On the 4th day, mice received oral administration of 0.5 mL volume containing ˜100 spores produced from a virulent clinical C. difficile isolate (strain VPI 10463). In this acute murine C. difficile infection model, we observed a similar time course of infection when compared to that of clinical patients.
Using the developed murine C. difficile infection model (Example 67), we evaluated our test compounds for their efficacy in reducing weight loss and gut inflammation caused by the acute C. difficile infection. We tested the efficacy of Example 6a and Example 5ae and used eight (8) animals in each group.
We further tested the efficacy of the Example 6a, Example 5ae, Example 4cl, and Example 5al compounds by PO administration. Vancomycin was used as a positive control. Three (3) experiments were performed utilizing a total of five (5) to sixteen (16) animals in each group.
C. difficile strain VPI 10463 was grown for four (4) days in 10 ml of BHI in a Bactron anaerobic workstation (Shel Lab). The culture was centrifuged at 2,700 g for 10 minutes. The bacterial pellet was washed with 10 mL of PBS and the centrifugation was repeated. The pellet was then re-suspended in 10 mL of PBS, incubated at 56° C. for 10 minutes, and then was frozen at −20° C. until used. Titers of spore stocks were determined by serial dilution and plating onto BHI and with 1% taurocholate and counting of colonies after incubation for 24 hours at 37° C. using the GasPak EZ Anaerobe Pouch System.
We utilized an established C. difficile murine infection model (Chen, Katchar et al. 2008). To render them susceptible to infection, female C57BL/6 mice (˜10 weeks old and weighing ˜20 g) were administered the following antibiotics (Sigma Aldrich) in drinking water for 3 days (Days −6 to −3): colistin (0.042 units/mL), gentamicin (0.035 mg/mL), kanamycin (0.4 mg/mL), metronidazole (0.215 mg/mL) and vancomycin (0.045 mg/mL). Based upon an expected water consumption of 100 mL/kg/day, the approximate doses of these antibiotics will be as follows: colistin (4.2 units/kg/day), gentamicin (3.5 mg/kg/day), kanamycin (40 mg/kg/day), metronidazole (21.5 mg/kg/day) and vancomycin (4.5 mg/kg/day). The animals were provided with regular drinking water for two days (Day −2 and Day −1), and the next day (Day 0) they were administered clindamycin phosphate (1 mg/mL solution in PBS) at 10 mL/kg by intraperitoneal injection, for a final dose of 10 mg/kg body weight. The following day (Day 1), they were orally gavaged with ˜100 spores in a 0.5 ml volume.
Compounds were administered beginning ˜8 hours after infection, and the animals were dosed twice per day for two days (Days 2-3) with a total of four doses. Compounds were prepared as 5 mg/mL suspensions in 20% PEG-400, 0.4% carboxymethyl cellulose and 0.2% Tween 80 and administered at a dose of 10 mL/kg, for a final dose of 50 mg/kg body weight.
Animals were observed and weighed two (2) to (3) times daily. Animals that were obviously moribund or had lost >20% of their initial body weight were euthanized. Sub-groups of animals were euthanized four (4) hours after the final compound dose (52 hours after infection). […]

[3] = molecular target: T1, recombinant glucosyltransferase domain of C. difficile Toxin B/TcdB (Clostridioides difficile, UniProt P18177); assay: biochemical
T1 construct: 6-His (C); purchased R&D Systems 6246-GT

[4] = molecular target: T2, C. difficile full-length toxin TcdB (Clostridioides difficile, UniProt P18177); assay: cell-based
T2 construct: C. difficile full-length toxins (TcdA or TcdB); purchased EMD Millipore 616377

[5] = molecular target: T3, C. difficile full-length toxin TcdA (Clostridioides difficile, UniProt P16154); assay: cell-based
T3 construct: C. difficile full-length toxins (TcdA or TcdB); purchased Enzo Life Sciences BML-G140-0050

[6] = test system: C. difficile infection (CDI); conditions: patients; Louie et al. 2011; cited from earlier work
C. difficile = format: in vivo, C57/BL6 mice
C. difficile strain 630 = format: in vivo, Golden Syrian hamsters; conditions: PO twice per day; Example 5ae 50 mg/kg 7 days; vancomycin 5 mg/kg 5 days

T2 sequence (P18177 2-2366 limits assumed): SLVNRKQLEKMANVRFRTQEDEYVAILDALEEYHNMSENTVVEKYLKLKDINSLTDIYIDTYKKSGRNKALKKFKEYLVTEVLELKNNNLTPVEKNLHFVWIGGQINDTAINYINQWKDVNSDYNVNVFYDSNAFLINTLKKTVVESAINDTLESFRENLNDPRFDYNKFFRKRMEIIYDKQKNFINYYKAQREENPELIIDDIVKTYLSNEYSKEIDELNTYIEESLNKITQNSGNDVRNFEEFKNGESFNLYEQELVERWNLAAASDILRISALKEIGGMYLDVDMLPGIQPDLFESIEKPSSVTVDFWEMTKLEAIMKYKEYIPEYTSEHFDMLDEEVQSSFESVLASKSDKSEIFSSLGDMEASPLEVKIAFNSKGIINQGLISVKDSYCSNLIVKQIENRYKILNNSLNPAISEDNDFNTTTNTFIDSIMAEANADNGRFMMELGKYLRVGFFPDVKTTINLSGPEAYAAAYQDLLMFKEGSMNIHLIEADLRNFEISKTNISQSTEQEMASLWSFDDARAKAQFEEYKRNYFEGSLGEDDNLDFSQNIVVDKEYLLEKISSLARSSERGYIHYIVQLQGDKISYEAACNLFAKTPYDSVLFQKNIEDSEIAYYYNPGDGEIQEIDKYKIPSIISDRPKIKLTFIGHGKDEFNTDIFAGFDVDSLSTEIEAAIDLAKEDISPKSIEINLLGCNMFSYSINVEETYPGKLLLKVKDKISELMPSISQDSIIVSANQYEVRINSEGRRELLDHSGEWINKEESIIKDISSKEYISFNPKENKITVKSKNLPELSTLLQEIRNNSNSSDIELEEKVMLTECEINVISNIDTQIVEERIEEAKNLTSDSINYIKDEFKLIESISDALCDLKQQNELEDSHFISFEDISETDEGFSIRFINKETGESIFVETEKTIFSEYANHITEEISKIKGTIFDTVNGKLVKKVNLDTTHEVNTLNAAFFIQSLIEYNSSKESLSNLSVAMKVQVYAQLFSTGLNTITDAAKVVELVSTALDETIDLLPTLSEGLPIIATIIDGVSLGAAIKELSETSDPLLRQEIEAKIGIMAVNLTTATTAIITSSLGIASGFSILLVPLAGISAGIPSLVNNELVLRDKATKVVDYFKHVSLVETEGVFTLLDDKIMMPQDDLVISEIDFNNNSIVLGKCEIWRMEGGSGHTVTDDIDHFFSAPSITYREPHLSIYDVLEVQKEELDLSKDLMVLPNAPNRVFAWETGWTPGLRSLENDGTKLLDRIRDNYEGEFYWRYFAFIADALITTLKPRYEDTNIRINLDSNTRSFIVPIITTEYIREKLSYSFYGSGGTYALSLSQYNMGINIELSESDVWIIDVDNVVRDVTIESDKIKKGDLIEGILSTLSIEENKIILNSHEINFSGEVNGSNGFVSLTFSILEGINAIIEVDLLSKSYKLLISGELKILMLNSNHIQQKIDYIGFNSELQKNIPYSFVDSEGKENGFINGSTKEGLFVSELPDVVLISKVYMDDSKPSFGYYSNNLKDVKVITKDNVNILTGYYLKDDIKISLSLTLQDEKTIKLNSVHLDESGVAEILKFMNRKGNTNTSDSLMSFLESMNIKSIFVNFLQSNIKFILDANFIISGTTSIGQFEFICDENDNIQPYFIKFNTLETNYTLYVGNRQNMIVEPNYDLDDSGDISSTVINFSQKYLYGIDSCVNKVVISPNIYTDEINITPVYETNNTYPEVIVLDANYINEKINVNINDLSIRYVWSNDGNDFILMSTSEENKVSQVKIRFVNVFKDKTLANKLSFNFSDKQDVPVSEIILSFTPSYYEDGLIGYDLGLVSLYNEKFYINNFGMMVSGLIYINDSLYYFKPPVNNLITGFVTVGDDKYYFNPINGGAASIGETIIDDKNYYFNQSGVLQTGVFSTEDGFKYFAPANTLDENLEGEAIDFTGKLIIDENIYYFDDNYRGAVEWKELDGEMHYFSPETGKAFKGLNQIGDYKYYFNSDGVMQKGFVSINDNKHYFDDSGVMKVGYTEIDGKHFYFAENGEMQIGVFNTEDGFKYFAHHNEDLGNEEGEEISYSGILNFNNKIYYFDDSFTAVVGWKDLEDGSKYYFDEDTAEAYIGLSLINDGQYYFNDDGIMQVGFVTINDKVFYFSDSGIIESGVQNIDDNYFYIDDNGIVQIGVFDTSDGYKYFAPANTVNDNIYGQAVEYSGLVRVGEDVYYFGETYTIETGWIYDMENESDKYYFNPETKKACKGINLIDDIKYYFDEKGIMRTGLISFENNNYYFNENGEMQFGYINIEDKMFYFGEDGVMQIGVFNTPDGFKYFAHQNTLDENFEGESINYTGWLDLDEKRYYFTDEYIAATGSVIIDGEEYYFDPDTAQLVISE
T1 sequence (P18177 1-543): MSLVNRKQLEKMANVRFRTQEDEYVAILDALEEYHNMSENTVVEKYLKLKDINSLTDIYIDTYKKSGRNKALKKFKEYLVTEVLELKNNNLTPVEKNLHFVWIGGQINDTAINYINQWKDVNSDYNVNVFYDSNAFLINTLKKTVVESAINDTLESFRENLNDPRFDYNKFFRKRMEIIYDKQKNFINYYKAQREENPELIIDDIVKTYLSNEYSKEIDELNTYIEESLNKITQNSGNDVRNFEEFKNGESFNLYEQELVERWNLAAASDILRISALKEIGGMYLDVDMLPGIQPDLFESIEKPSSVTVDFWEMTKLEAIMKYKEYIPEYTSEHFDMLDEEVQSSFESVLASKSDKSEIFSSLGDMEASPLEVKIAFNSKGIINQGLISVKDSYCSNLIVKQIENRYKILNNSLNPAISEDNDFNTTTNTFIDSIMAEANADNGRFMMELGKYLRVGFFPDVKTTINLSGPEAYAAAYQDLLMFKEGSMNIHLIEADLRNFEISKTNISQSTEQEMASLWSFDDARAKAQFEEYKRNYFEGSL

| SMILES | IL-1β (% Inhibition) [1] [%] | MPO (% Inhibition) [1] [%] | IL-1β in colon tissue [1] | MPO in colon tissue [1] | toxin effect on colon length [1] | toxin effect on colon length [2] | IC50 [3] [nM] | IC50 [4] [nM] | IC50 [5] [nM] | IL-1β in colon tissues [2] | MPO in colon tissues [2] | CDI recurrence [6] [%] | weight loss, days 8-9 after infection (C. difficile; relapse model, PO, vancomycin 20 mg/kg once per day for five days) | weight loss during treatment (Days 1-5) (C. difficile; vancomycin 20 mg/kg oral, once per day for five days) | body weight loss (C. difficile strain 630) |
| --- | --- | --- | --- | --- | --- | --- | --- | --- | --- | --- | --- | --- | --- | --- | --- |
| COc1ccc(NC(=O)c2ccc(CN3C(=O)c4ccc(Cl)cc4NC(=O)[C@H]3Cc3ccccn3)cc2C)nc1 [Example 4cl, (R)-4-((8-Chloro-2,5-dioxo-3-(pyridin-2-ylmethyl)-2,3-dihydro-1H-benzo[e][1,4]diazepin-4(5H)-yl)methyl)-N-(5-methoxypyridin-2-yl)-2-methylbenzamide] | 100 | 100 | reduced the levels of IL-1β | reduced | reduced the C. difficile toxin-mediated effects on colon length | significantly reduced the toxin effect on colon length | < 100 | < 100 | 100 to 999 |  |  |  |  |  |  |
| Cc1cc(CN2C(=O)c3ccc(Cl)cc3NC(=O)[C@H]2Cc2ccccn2)ccc1C(=O)Nc1ccc(C(F)(F)F)cn1 [Example 5al, (R)-4-((8-Chloro-2,5-dioxo-3-(pyridin-2-ylmethyl)-2,3-dihydro-1H-benzo[e][1,4]diazepin-4(5H)-yl)methyl)-2-methyl-N-(5-(trifluoromethyl)pyridin-2-yl)benzamide] | 81 | 91 | reduced the levels of IL-1β | reduced | reduced the C. difficile toxin-mediated effects on colon length | significantly reduced the toxin effect on colon length | < 100 | < 100 | 1000 to 10000 | reduced the level of IL-1β | reduced |  |  |  |  |
| CCc1c(Cl)c(O)c(Cl)c(O)c1C(=O)O[C@H]1[C@H](O)[C@H](OC)[C@H](OC/C2=C\C=C\C[C@H](O)/C(C)=C/[C@H](CC)[C@@H](O[C@@H]3OC(C)(C)[C@@H](OC(=O)C(C)C)[C@H](O)[C@@H]3O)/C(C)=C/C(C)=C/C[C@@H]([C@@H](C)O)OC2=O)O[C@@H]1C [fidaxomicin] |  |  |  |  |  |  |  |  |  |  |  | 8 |  |  |  |
| CN[C@H](CC(C)C)C(=O)N[C@H]1C(=O)N[C@@H](CC(N)=O)C(=O)N[C@H]2C(=O)N[C@H]3C(=O)N[C@H](C(=O)N[C@H](C(=O)O)c4cc(O)cc(O)c4-c4cc3ccc4O)[C@H](O)c3ccc(c(Cl)c3)Oc3cc2cc(c3O[C@@H]2O[C@H](CO)[C@@H](O)[C@H](O)[C@H]2O[C@H]2C[C@](C)(N)[C@H](O)[C@H](C)O2)Oc2ccc(cc2Cl)[C@H]1O [vancomycin, reference compound] |  |  |  |  |  |  |  |  |  |  |  | 25 | significant weight loss | prevented weight loss | prevented any significant weight loss |
